Source: patent US10596162B2 (WYETH LLC, priority 2005, dated 2020)

Experiments:
NCI-H1650 cells = experiment: Generation of drug-resistant NCI-H1650 colonies; assay type: cell-based; settings: for generation of drug-resistant clones in vitro: NCI-H1650, irreversible inhibitors at concentrations above 10 μM, even after ethyl methane sulfonate mutagenesis
ERBB2 = ERBB2 (Homo sapiens, UniProt P04626); settings: read-out: IC50 for ERBB2; cited from earlier work
[1] = system: NCI-H1650 cells (delE746-A750 EGFR); experiment: Proliferation/cell killing of bronchoalveolar cancer cell line, crystal violet staining; settings: NCI-H1650 vs NCI-H1666
[2] = system: EGFR autophosphorylation (Y1068), AKT and MAPK phosphorylation in NCI-H1650 cells; experiment: Immunoblotting of EGFR signaling in parental cells; assay type: cell-based; settings: delE746-A750 EGFR
Protocol: Viable cells were counted 72 h after treatment with double-stranded RNA and are shown as a fraction relative to cells treated with nonspecific siRNA, with standard deviations based on triplicate samples. […] Rhodamine-tagged EGF is used to label EGFR at 5 and 20 rain, after addition of ligand. […] (Zeiss microscope, ×63 magnification).
(§1) Immunoblotting and Signaling Studies. […] Lysates were prepared in 2× gel loading buffer, sonicated, boiled, and then separated by 10% SDS/PAGE, followed by electrotransfer to polyvinylidene fluoride (PVDF) membranes, and immunoblotting. Antibodies used were phospho-EGFR Y1068 and phospho-mitogen-activated protein kinase (MAPK) (Cell Signaling Technology, Beverly, Mass.), phospho-AKT (BioSource International, Camarillo, Calif.), and total EGFR, MAPK, AKT, and tubulin (Santa Cruz Biotechnology).

[3] = system: EGFR autophosphorylation, AKT and MAPK phosphorylation in NCI-H1975 cells (L858R and T790M EGFR); experiment: Immunoblotting of EGFR signaling in T790M cell line; assay type: cell-based
Protocol: Total EGFR, AKT, and MAPK are shown as loading controls.
as §1

Sequence of ERBB2 (P04626 23-1255): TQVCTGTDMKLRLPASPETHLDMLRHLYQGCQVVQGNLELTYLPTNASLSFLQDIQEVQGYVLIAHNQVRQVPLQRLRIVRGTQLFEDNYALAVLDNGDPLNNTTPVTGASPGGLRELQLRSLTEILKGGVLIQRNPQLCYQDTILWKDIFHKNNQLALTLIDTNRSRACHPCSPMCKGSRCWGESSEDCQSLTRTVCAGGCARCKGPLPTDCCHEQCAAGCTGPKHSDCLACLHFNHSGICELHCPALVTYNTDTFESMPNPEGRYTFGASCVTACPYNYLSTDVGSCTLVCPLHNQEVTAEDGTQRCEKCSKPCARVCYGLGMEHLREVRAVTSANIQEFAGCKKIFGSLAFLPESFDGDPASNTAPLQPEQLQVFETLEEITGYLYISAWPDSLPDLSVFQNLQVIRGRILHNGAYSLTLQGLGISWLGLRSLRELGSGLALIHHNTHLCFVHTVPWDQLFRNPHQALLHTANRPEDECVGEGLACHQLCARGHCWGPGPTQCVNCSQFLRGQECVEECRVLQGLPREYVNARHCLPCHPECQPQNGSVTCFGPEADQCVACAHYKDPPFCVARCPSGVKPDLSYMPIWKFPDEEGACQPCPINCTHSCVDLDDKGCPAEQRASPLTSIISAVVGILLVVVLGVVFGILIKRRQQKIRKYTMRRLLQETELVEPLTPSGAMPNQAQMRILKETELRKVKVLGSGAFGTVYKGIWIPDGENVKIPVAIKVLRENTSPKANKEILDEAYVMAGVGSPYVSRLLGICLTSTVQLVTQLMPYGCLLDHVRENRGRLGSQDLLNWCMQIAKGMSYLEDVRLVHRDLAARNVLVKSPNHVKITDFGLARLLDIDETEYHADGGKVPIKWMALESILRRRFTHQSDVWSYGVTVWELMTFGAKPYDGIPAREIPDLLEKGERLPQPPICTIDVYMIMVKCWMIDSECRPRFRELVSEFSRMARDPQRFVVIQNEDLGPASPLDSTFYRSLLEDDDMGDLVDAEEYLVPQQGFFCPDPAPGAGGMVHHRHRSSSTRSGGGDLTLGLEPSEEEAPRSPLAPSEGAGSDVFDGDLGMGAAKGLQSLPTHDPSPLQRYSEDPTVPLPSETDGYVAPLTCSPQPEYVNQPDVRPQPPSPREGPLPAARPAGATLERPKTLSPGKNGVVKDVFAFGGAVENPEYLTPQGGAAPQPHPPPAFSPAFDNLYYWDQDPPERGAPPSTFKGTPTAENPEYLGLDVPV

Row | SMILES | generation of drug-resistant clones in vitro (NCI-H1650 cells) | IC50 (ERBB2) [nM] | killing of NSCLC cells harboring an EGFR mutation compared with cells expressing wild-type receptor [1] | effectiveness relative to gefitinib in suppressing EGFR autophosphorylation (Y1068), AKT and MAPK phosphorylation [2] [fold] | suppression of ligand-induced EGFR autophosphorylation and downstream AKT and MAPK phosphorylation [3] | frequency of drug-resistant colonies (NCI-H1650 cells; 20 μM gefitinib, irrespective of mutagen treatment)
1 | CCOc1cc2ncc(C#N)c(Nc3ccc(F)c(Cl)c3)c2cc1NC(=O)/C=C/CN(C)C [EKB-569] | not readily generated | 1300 | increased cell killing |  |  | 
2 | CCOc1cc2ncc(C#N)c(Nc3ccc(OCc4cccc(F)c4)c(Cl)c3)c2cc1NC(=O)/C=C/CN(C)C [HKI-357] | not readily generated |  | increased cell killing | 10 | considerably more effective than gefitinib | 
3 | COc1cc2ncnc(Nc3ccc(F)c(Cl)c3)c2cc1OCCCN1CCOCC1 [gefitinib, Gefitinib, reference compound] | readily generated |  |  |  |  | ≈ 10^−5
